Peptide text beside a SMILES is read from it. * marks the point of attachment. βGlc = OC[C@H]1O[C@@H](*)[C@H](O)[C@@H](O)[C@@H]1O
How the values were obtained:
[1] = Stability of dosing formulations; assay type: physicochemical; conditions: solutions in 0.9 % sodium chloride, 0.1 mg/mL and 10 mg/mL
Protocol: The analyzed dosing formulations were within the protocol-specified range of target concentrations for solutions and were stable at 0.1 mg/mL and 10 mg/mL following 24 h of room temperature storage and following 9 days of refrigerated storage.
The analyzed dosing formulations contained 95.5–108.7 % of the test article, which was within the protocol-specified range of target concentrations for solutions (90–110 %), and were stable at 0.1 mg/mL and 10 mg/mL following 24 h of room temperature storage and following 9 days of refrigerated storage. The test article was not detected in the analyzed vehicle formulation that was administered to the control groups.

male Sprague Dawley rats = test: Neurobehavioral evaluations after a single subcutaneous dose in male Sprague Dawley rats; assay type: in vivo, rat; conditions: single s.c. dose 1, 5 or 40 mg/kg, n = 8 per group
Protocol: To evaluate the effects of PNA5 when administered subcutaneously on the central nervous system’s autonomic, neuromuscular, sensorimotor, and behavioral domains, neurobehavioral evaluations were performed in male Sprague Dawley rats treated with PNA5 at 0, 1, 5, or 40 mg/kg (n = 8 males per group). The neurobehavioral evaluations consisted of assessments of the central nervous system for activity, excitability, autonomic function, neuromuscular function, sensorimotor responses, and physiological function.

[2] = Toxicokinetics of PNA5 in Beagle dog plasma; conditions: for Tmax: table: average (range), text b115: median; for AUC0–2hr accumulation ratio: day 28 vs day 1, sexes combined; for fold increase in AUC0–2hr for a 20-fold increase in dose / fold increase in Cmax for a 20-fold increase in dose: 1 to 20 mg/kg/day; for time post-dose up to which PNA5 was quantifiable: days 1 and 28, limit of quantitation 5 ng/mL
Protocol: Toxicokinetic (TK) of PNA5 was obtained from plasma following a single and repeated subcutaneous injection administration of PNA5 once daily for 28 days. Blood samples were collected on days 1 and 28 at the following time points: pre-dose and at approximately 5, 15, 30, 60, and 120 min post-dose (equivalent to 0.083, 0.25, 0.5, 1, and 2 h).
For the rat study, a total of 6 rats for each sex were assigned randomly to treatment groups 2–4 (those treated with PNA5). Three rats per sex were assigned to group 1 (vehicle control). Rats were sampled in satellite groups; rats' blood was taken at alternating time points, resulting in a total n = 3 per time point for six animals. For the dog study, three animals per sex were assigned to group 2 and group 3, and five animals per sex were assigned to group 1 and group 4. Blood was collected from canines via venipuncture.
Blood was collected in heparinized tubes containing a protease inhibitor cocktail consisting of 4 mM 0-phenanthroline, 1.2 mM pepstatin A, and 0.5 M EDTA. Blood samples were centrifuged for 15 min at 2500 x g at room temperature. Plasma was transferred into pre-cooled, pre-labeled collection tubes, frozen immediately in liquid nitrogen/dry ice, and stored at −80 °C until analysis.
PNA5 levels were analyzed using ultra-high performance liquid chromatography (UHPLC) with tandem mass spectrometric (MS/MS) detection. Precision and accuracy, reproducibility, selectivity, carryover, recovery, matrix effects, dilution integrity, hemolysis, stock stability, and matrix stability were assessed prior to initiation of the validation. Samples (5 µL) were injected onto the column and separated using gradient elution. Target compounds were quantified by summing the height of previously identified fragment peaks in the LC-MS [3] spectra. The serum concentrations were estimated using a calibration curve, accounting for the dilution factors and the probe recoveries for each experiment. Standards were matrix-matched to samples and underwent the same sample preparation steps.
A noncompartmental analysis was used for parameter estimation. For PNA5 in plasma, the extravascular model was used for parameter estimation. For the rat study, all parameters were generated from PNA5 individual concentrations in plasma from days 1 and 28. Parameters were estimated using nominal dose levels and nominal sampling times relative to the dose administration. Plasma concentration values obtained at the pre-dose time point were used as the concentration at time 0 on days 1 and 28. For the dog study, all parameters were generated from PNA5 individual concentrations in plasma from days 1 and 28. Parameters were estimated using nominal dose levels and nominal sampling times relative to dose administration. Plasma concentration values obtained at the pre-dose time point were used as the concentration at time 0 on days 1 and 28. For Beagle dogs, concentration values reported as below the limit of quantitation (< 5 ng/mL) were assigned a value of 0.
The toxicokinetic parameters evaluated included the area under the curve of the plasma PNA5 concentration against time from time 0 (pre-dose) to 2 h (post-dose) (AUC0–2hr), the maximum plasma concentration (Cmax), time to maximum plasma concentration (Tmax), elimination rate (Kel), and the half-life. The area under the concentration vs. time curve was calculated using the linear trapezoidal method with linear interpolation for all profiles with at least three consecutive quantifiable concentrations. Kel was calculated from the slope using exponential regression of concentration versus time (Excel); exponential interpolations for all profiles include at least three concentrations plotted against time. Time 0 values and all concentrations listed as zero were excluded from Kel calculations. The half-life was calculated from Kel via the following equation: half-life Ln(2)/Kel.

With `CC[C@H](C)[C@H](NC(=O)[C@H](Cc1ccc(O)cc1)NC(=O)[C@@H](NC(=O)[C@H](CCCNC(=N)N)NC(=O)[C@@H](N)CC(=O)O)C(C)C)C(=O)N[C@@H](Cc1c[nH]cn1)C(=O)N[C@@H](CO[C@@H]1O[C@H](CO)[C@@H](O)[C@H](O)[C@H]1O)C(N)=O` [PNA5, Ang-1–6-Ser-O-Glu-NH2] (H-DRVYIHS(βGlc)-NH2) the “stability of dosing formulations” value ([1]; 24 h of room temperature storage) was “stable”, the “stability of dosing formulations” value ([1]; 9 days of refrigerated storage) was “stable” and the “neurobehavioral assessments of the central nervous system (activity, excitability, autonomic, neuromuscular, sensorimotor, physiological function)” value (male Sprague Dawley rats) was “nor were there observed PNA5-related effects”. For the same molecule, the AUC(0-t) ([2]; both, Beagle, dog, plasma, sc, 1 mg/kg/day, AUC0–2, dogs, plasma, s.c. 1 mg/kg/day, day 1, sexes combined, mean ± SD, n = 6, linear trapezoidal) was 63.5 ± 14.8 ng·h/mL, the Cmax ([2]; both, Beagle, dog, plasma, sc, 1 mg/kg/day, Cmax, Beagle dogs, plasma, s.c. once daily 1 mg/kg/day, day 1, sexes combined, mean ± SD, n = 6, UHPLC-MS/MS, noncompartmental) was 110 ± 37.3 ng/mL and the Cmax ([2]; both, Beagle, dog, plasma, sc, 1 mg/kg/day, Cmax, Beagle dogs, plasma, s.c. once daily 1 mg/kg/day, day 28, sexes combined, mean ± SD, n = 6, UHPLC-MS/MS, noncompartmental) was 146 ± 59.6 ng/mL. The half-life ([2]; both, Beagle, dog, plasma, sc, 1 mg/kg/day, dogs, plasma, s.c. 1 mg/kg/day, day 1, sexes combined, mean ± SD, n = 6, Ln(2)/Kel) was 17.4 ± 6 min, the half-life ([2]; both, Beagle, dog, plasma, sc, 1 mg/kg/day, dogs, plasma, s.c. 1 mg/kg/day, day 28, sexes combined, mean ± SD, n = 6, Ln(2)/Kel) was 15.6 ± 4.8 min and the Tmax ([2]; both, Beagle, dog, plasma, sc, 1 mg/kg/day, Tmax, dogs, plasma, s.c. 1 mg/kg/day, day 1, sexes combined) was 10 min. It also gave an AUC(0-t) ([2]; both, Beagle, dog, plasma, sc, 5 mg/kg/day, AUC0–2, dogs, plasma, s.c. 5 mg/kg/day, day 1, sexes combined, mean ± SD, n = 6, linear trapezoidal) of 358 ± 95.1 ng·h/mL, an AUC(0-t) ([2]; both, Beagle, dog, plasma, sc, 5 mg/kg/day, AUC0–2, dogs, plasma, s.c. 5 mg/kg/day, day 28, sexes combined, mean ± SD, n = 6, linear trapezoidal) of 365 ± 42.6 ng·h/mL and a Cmax ([2]; both, Beagle, dog, plasma, sc, 5 mg/kg/day, Cmax, Beagle dogs, plasma, s.c. once daily 5 mg/kg/day, day 1, sexes combined, mean ± SD, n = 6, UHPLC-MS/MS, noncompartmental) of 496 ± 115 ng/mL. The Cmax ([2]; both, Beagle, dog, plasma, sc, 5 mg/kg/day, Cmax, Beagle dogs, plasma, s.c. once daily 5 mg/kg/day, day 28, sexes combined, mean ± SD, n = 6, UHPLC-MS/MS, noncompartmental) was 444 ± 101 ng/mL, the half-life ([2]; both, Beagle, dog, plasma, sc, 5 mg/kg/day, dogs, plasma, s.c. 5 mg/kg/day, day 1, sexes combined, mean ± SD, n = 6, Ln(2)/Kel) was 30 ± 7.8 min and the half-life ([2]; both, Beagle, dog, plasma, sc, 5 mg/kg/day, dogs, plasma, s.c. 5 mg/kg/day, day 28, sexes combined, mean ± SD, n = 6, Ln(2)/Kel) was 34.8 ± 12.6 min. The Tmax ([2]; both, Beagle, dog, plasma, sc, 5 mg/kg/day, Tmax, dogs, plasma, s.c. 5 mg/kg/day, day 1, sexes combined) was 15 min, the Tmax ([2]; both, Beagle, dog, plasma, sc, 5 mg/kg/day, Tmax, dogs, plasma, s.c. 5 mg/kg/day, day 28, sexes combined) was 10 min and the AUC(0-t) ([2]; both, Beagle, dog, plasma, sc, 20 mg/kg/day, AUC0–2, dogs, plasma, s.c. 20 mg/kg/day, day 1, sexes combined, mean ± SD, n = 10, linear trapezoidal) was 1270 ± 270 ng·h/mL. It also gave an AUC(0-t) ([2]; both, Beagle, dog, plasma, sc, 20 mg/kg/day, AUC0–2, dogs, plasma, s.c. 20 mg/kg/day, day 28, sexes combined, mean ± SD, n = 10, linear trapezoidal) of 1080 ± 309 ng·h/mL, a Cmax ([2]; both, Beagle, dog, plasma, sc, 20 mg/kg/day, Cmax, Beagle dogs, plasma, s.c. once daily 20 mg/kg/day, day 1, sexes combined, mean ± SD, n = 10, UHPLC-MS/MS, noncompartmental) of 1440 ± 453 ng/mL and a Cmax ([2]; both, Beagle, dog, plasma, sc, 20 mg/kg/day, Cmax, Beagle dogs, plasma, s.c. once daily 20 mg/kg/day, day 28, sexes combined, mean ± SD, n = 10, UHPLC-MS/MS, noncompartmental) of 1120 ± 530 ng/mL. The half-life ([2]; both, Beagle, dog, plasma, sc, 20 mg/kg/day, dogs, plasma, s.c. 20 mg/kg/day, day 1, sexes combined, mean ± SD, n = 10, Ln(2)/Kel) was 41.4 ± 6 min, the half-life ([2]; both, Beagle, dog, plasma, sc, 20 mg/kg/day, dogs, plasma, s.c. 20 mg/kg/day, day 28, sexes combined, mean ± SD, n = 9, Ln(2)/Kel) was 48.6 ± 12.6 min and the Tmax ([2]; both, Beagle, dog, plasma, sc, 20 mg/kg/day, Tmax, dogs, plasma, s.c. 20 mg/kg/day, day 1, sexes combined) was 15 min. For the same molecule, the Tmax ([2]; both, Beagle, dog, plasma, sc, 20 mg/kg/day, Tmax, dogs, plasma, s.c. 20 mg/kg/day, day 28, sexes combined) was 22.5 min, the “AUC0–2hr accumulation ratio” value ([2]; dogs, 1 mg/kg/day) was 0.99 and the “AUC0–2hr accumulation ratio” value ([2]; dogs, 5 mg/kg/day) was 1.02. For the same molecule, the “AUC0–2hr accumulation ratio” value ([2]; dogs, 20 mg/kg/day) was 0.85, the “fold increase in AUC0–2hr for a 20-fold increase in dose” value ([2]; dogs, day 1, sexes combined) was ~20.06 fold and the “fold increase in Cmax for a 20-fold increase in dose” value ([2]; dogs, day 1, sexes combined) was ~13.06 fold. For the same molecule, the “fold increase in AUC0–2hr for a 20-fold increase in dose” value ([2]; dogs, day 28, sexes combined) was ~17.19 fold, the “fold increase in Cmax for a 20-fold increase in dose” value ([2]; dogs, day 28, sexes combined) was ~7.70 fold and the “time post-dose up to which PNA5 was quantifiable” value ([2]; dogs, plasma, 1 mg/kg/day) was “up to 1 h”. For the same molecule, the “time post-dose up to which PNA5 was quantifiable” value ([2]; dogs, plasma, 5 and 20 mg/kg/day, last sampling time 2 h) was “up to 2 h”, the Kel ([2]; dogs, plasma, s.c. 1 mg/kg/day, day 1, sexes combined, mean ± SD, n = 6, exponential regression) was 2.63 ± 0.97, 6 hr^–1 and the Kel ([2]; dogs, plasma, s.c. 1 mg/kg/day, day 28, sexes combined, mean ± SD, n = 6, exponential regression) was 2.87 ± 0.86, 6 hr^–1. The “AUC0–2” value ([2]; dogs, plasma, s.c. 1 mg/kg/day, day 28, sexes combined, mean ± SD, n = 6, linear trapezoidal) was 62.61 ± 19.05, 6 hr*ng/mL, the Tmax ([2]; dogs, plasma, s.c. 1 mg/kg/day, day 28, sexes combined) was 0.167(0.083–0.25) hr and the Kel ([2]; dogs, plasma, s.c. 5 mg/kg/day, day 1, sexes combined, mean ± SD, n = 6, exponential regression) was 1.44 ± 0.33, 6 hr^–1. For the same molecule, the Tmax ([2]; dogs, plasma, s.c. 5 mg/kg/day, day 1, sexes combined) was 15 min, the Kel ([2]; dogs, plasma, s.c. 5 mg/kg/day, day 28, sexes combined, mean ± SD, n = 6, exponential regression) was 1.32 ± 0.43, 6 hr^–1 and the Tmax ([2]; dogs, plasma, s.c. 5 mg/kg/day, day 28, sexes combined) was 10 min. The Kel ([2]; dogs, plasma, s.c. 20 mg/kg/day, day 1, sexes combined, mean ± SD, n = 10, exponential regression) was 1.02 ± 0.17, 10 hr^–1, the Tmax ([2]; dogs, plasma, s.c. 20 mg/kg/day, day 1, sexes combined) was 15 min and the Kel ([2]; dogs, plasma, s.c. 20 mg/kg/day, day 28, sexes combined, mean ± SD, n = 10, exponential regression) was 0.86 ± 0.35, 10 hr^–1. The AUC(0-t) ([2]; female, Beagle, dog, plasma, sc, 20 mg/kg/day, mean AUC0–2hr, females, dogs, females, 20 mg/kg/day (NOAEL), day 28) was 1150 ng·h/mL, the Cmax ([2]; female, Beagle, dog, plasma, sc, 20 mg/kg/day, mean Cmax, females, dogs, females, 20 mg/kg/day (NOAEL), day 28) was 1140 ng/mL and the AUC(0-t) ([2]; male, Beagle, dog, plasma, sc, 20 mg/kg/day, mean AUC0–2hr, males, dogs, males, 20 mg/kg/day (NOAEL), day 28) was 1000 ng·h/mL. It also gave a Cmax ([2]; male, Beagle, dog, plasma, sc, 20 mg/kg/day, mean Cmax, males, dogs, males, 20 mg/kg/day (NOAEL), day 28) of 1100 ng/mL.
